From PubChem BioAssay (NCI)
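A five-concentration, 48-hour dose response in 96-well plates underlies each endpoint, interpolated linearly between surrounding concentrations. Abbreviation: GI50, concentration required for 50% inhibition of growth. TGI is the concentration that stops growth completely.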

Assays:
Test in all cases: DTP human tumour cell line panel, 48 h
DU-145 prostate = system: DU-145 prostate
HL-60(TB) leukemia = system: HL-60(TB) leukemia
SNB-75 CNS = system: SNB-75 CNS
U251 CNS = system: U251 CNS
HOP-62 NSCLC = system: HOP-62 NSCLC
SR leukemia = system: SR leukemia
ACHN renal = system: ACHN renal
RXF 393 renal = system: RXF 393 renal
UACC-62 melanoma = system: UACC-62 melanoma
SK-OV-3 ovarian = system: SK-OV-3 ovarian

Compound	GI50 (DU-145 prostate) [µM]	TGI (DU-145 prostate) [µM]	GI50 (HL-60(TB) leukemia) [µM]	TGI (HL-60(TB) leukemia) [µM]	GI50 (SNB-75 CNS) [µM]	TGI (SNB-75 CNS) [µM]	GI50 (U251 CNS) [µM]	TGI (U251 CNS) [µM]	GI50 (HOP-62 NSCLC) [µM]	TGI (HOP-62 NSCLC) [µM]	GI50 (SR leukemia) [µM]	TGI (SR leukemia) [µM]	GI50 (ACHN renal) [µM]	TGI (ACHN renal) [µM]	GI50 (RXF 393 renal) [µM]	TGI (RXF 393 renal) [µM]	GI50 (UACC-62 melanoma) [µM]	TGI (UACC-62 melanoma) [µM]	GI50 (SK-OV-3 ovarian) [µM]	TGI (SK-OV-3 ovarian) [µM]
C/C(=N/N=C(N)N)c1ccc(NC(=O)Nc2ccc(/C(C)=N/N=C(N)N)cc2)cc1	11.2	40.1	7.89	> 28.4	17.6	38.1	7.94	24.3	21.8	> 60.3	15.2	30.1	20.7	> 55.4	20.3	42.4	17.4	45.3	36.3	> 82.3
Nc1ccc(Sc2c3ccccc3nc3ccccc23)cc1		28.7		10.7		36.2		28		56.9		32.4		28.3		40.4		30.5		59.8
CSc1ccc(C(=O)/C=C/c2ccccc2Cl)cc1	13.9	29	19.5	90.3	22.2	45.2	4.75	17.2	17.4	35.4	2.23	22.4	15	28.5	4.23	16.4	15.7	33.5	32.3	> 100
C/C(=N/Nc1nc(C)cc(=O)[nH]1)C(=O)O		> 100		> 100		> 100		> 100		> 100		> 100		> 100		> 100		> 100		> 100
CC1=C([Se]CC(OC(=O)[C@@H](CO)NC(=O)OC(C)(C)C)C(=O)NCCCCCC(=O)OCc2ccccc2)C(=O)c2ccccc2C1=O (some centres undefined)	1.82	3.26	2.03	4.82	1.29	2.55	0.94	2.17	0.414	1.75	1.6	6.55	1.65	3.07	2.7	4.18	1.68	3.07	1.28	2.56
CCC[CH2][Pb]([Cl])([CH2]CCC)[CH2]CCC	0.0978	0.22	0.0232	0.0444	0.0215	0.114	0.0161	0.0304	0.128	0.258	0.0671		0.0221	0.0558	0.0231	0.0635	0.0459	0.112	0.12	0.257
COC1=CC(=O)c2nc(Cl)ccc2C1=O	1.65	3.01	2.01	7.61	1.35	2.73	1.66	3.03	1.94	3.4	3.17	> 100	1.67	3.04	1.58	2.97	1.77	3.45	11	23.3
CC1(C)N=C(N)N=C(N)N1c1cccc(Br)c1	0.895	> 100	0.491	> 73.8	> 59	> 100	0.321	> 100	0.777	> 100	0.703	> 100	0.786	> 100	> 23.1	> 100	1.93	> 100	1.69	> 100
Nc1ncnc2c1ccn2[C@@H]1O[C@H]([C@H](O)c2ccc(Cl)c(F)c2)[C@@H](O)[C@H]1O	> 100	> 100	> 100	> 100	> 100	> 100	> 100	> 100	> 100	> 100	> 100	> 100	> 100	> 100	66.5	> 100	> 100	> 100	> 100	> 100
